Experiment: xn = mol fraction of the nth substance listed

CC(=O)c1ccccc1 + ClC(Cl)Cl
298.15 K, 101 kPa
Conditions	viscosity [mPa·s]
x1 = 0.0992	0.655
x1 = 0.337	0.915
x1 = 0.501	1.107
x1 = 0.7125	1.352
x1 = 0.8875	1.53

CC(=O)c1ccccc1 + ClCCCl
298.15 K, 101 kPa
Conditions	viscosity [mPa·s]
x2 = 0.1118	1.531
x2 = 0.3581	1.283
x2 = 0.6942	0.993

FCC(F)(F)F + FC(F)C(F)(F)F
viscosity [mPa·s], 101 kPa
Conditions	x1 = 0.25	x1 = 0.5	x1 = 0.746
298.15 K	0.158	0.1739	0.1862
313.15 K	0.1263	0.1395	0.151

FCC(F)(F)F + FCF
viscosity [mPa·s], 101 kPa
Conditions	x1 = 0.245	x1 = 0.518	x1 = 0.756
298.15 K	0.1241	0.1379	0.1592
313.15 K	0.1031	0.1152	0.129

C1COCO1 + O
viscosity [mPa·s], 101 kPa
Conditions	298.15 K	303.15 K	308.15 K	313.15 K	318.15 K	323.15 K
x1 = 0.01	0.754	–	0.6051	–	0.5251	–
x1 = 0.026	0.813	–	0.6561	–	0.5671	–
x1 = 0.03	–	0.8133	–	0.6555	–	0.5673
x1 = 0.041	0.8741	–	0.7144	–	0.6071	–
x1 = 0.06	–	0.8766	–	0.7152	–	0.6053
x1 = 0.09	–	0.9304	–	0.7618	–	0.6297

CC(C)C[C@H](NC(=O)CN)C(=O)O + O
viscosity [mPa·s], 100 kPa
Conditions	x1 = 0.000362	x1 = 0.000727	x1 = 0.00109	x1 = 0.00145	x1 = 0.00179	x1 = 0.002245	x1 = 0.002699
293.15 K	1.015	1.029	1.042	1.054	1.067	1.083	1.1
298.15 K	0.9019	0.9133	0.9246	0.9358	0.9464	0.9607	0.9749
303.15 K	0.8072	0.817	0.8268	0.8363	0.8455	0.8577	0.8698
308.15 K	0.7277	0.7362	0.7447	0.753	0.761	0.7717	0.7823
313.15 K	0.6605	0.668	0.6755	0.6828	0.6898	0.6992	0.7085

CCC(O)CC + O
298.15 K, 101 kPa
Conditions	viscosity [mPa·s]
x2 = 0.0181	4.598
x2 = 0.0463	4.339
x2 = 0.0845	4.074
x2 = 0.1302	3.873
x2 = 0.1754	3.748
x2 = 0.1948	3.712
x2 = 0.2262	3.67
x2 = 0.2533	3.65
x2 = 0.2782	3.641
x2 = 0.3215	3.648

CCN(CCO)CCO + O
viscosity [mPa·s], 101 kPa
Conditions	303.15 K	308.15 K	313.15 K	318.15 K	323.15 K
x1 = 0.0478	2.433	2.084	1.809	1.585	1.4
x1 = 0.1002	5.975	4.885	4.051	3.403	2.897
x1 = 0.1411	10.13	8.044	6.499	5.322	4.422
x1 = 0.1933	16.59	12.84	10.12	8.088	6.604
x1 = 0.2959	31.21	23.36	17.84	13.84	10.95
x1 = 0.3944	43.07	31.83	24.05	18.38	14.39
x1 = 0.495	51.1	37.78	28.28	21.56	16.84
x1 = 0.5912	54.81	40.53	30.44	23.28	18.22
x1 = 0.7064	55.22	40.91	31.03	23.93	18.76
x1 = 0.8113	53.42	39.97	30.47	23.66	18.65
x1 = 0.8934	51.39	38.76	29.74	23.19	18.44

CN1CCCCCC1=O + O
298.16 K, 101 kPa
Conditions	viscosity [mPa·s]
x2 = 0.0975	5.35
x2 = 0.2528	6.17
x2 = 0.4046	7.19
x2 = 0.4996	7.85
x2 = 0.577	8.2
x2 = 0.63	8.28
x2 = 0.7444	7.43
x2 = 0.8512	5.1
